Assay results: publication PMC9822050, “Antiviral Activities of Ethyl Pheophorbides a and b Isolated from Aster pseudoglehnii against Influenza Viruses” (Molecules, 2022)
≈ marks a conversion by molar mass, not a printed value.

Key:
[1] = system: IAV; experiment: Western blot analysis of IAV HA protein level after time-of-drug-addition treatment; assay type: cell-based, influenza A virus (PR8-GFP)
[2] = system: IAV; experiment: Time-of-drug-addition assay, viral RNA transcript levels via qRT-PCR; assay type: cell-based, influenza A virus (PR8-GFP)
[3] = target: HA1 (Influenza A virus, UniProt P03452); experiment: Hemagglutination inhibition assay with chicken red blood cells; details: IAV treated with 1 µg/mL, cRBC 0.5%
[4] = system: IBV; experiment: Plaque reduction assay, IBV; details: Influenza B virus, MDCK, read-out: 50% inhibitory concentration (IC50) for IBV, virus pre-treated 1 h at room temperature, MDCK cells, MOI 0.001, plaque assay 48 h after infection
[5] = target: HA2 (Influenza A virus, UniProt P03452); experiment: Hemolysis inhibition assay with chicken red blood cells; details: IAV treated with 1 µg/mL, cRBC 2%, pH 5.2
[6] = system: MDCK cells; experiment: Cytotoxicity / MTT assay; assay type: cell-based, canine; details: 48 h, up to a concentration of 10 µg/mL
Method: To clarify whether the inhibitory activities of ethyl pheophorbides a and b are mediated through cytotoxicity, MDCK cells were treated with different concentrations of each compound and cell viability was determined after 48 h via the MTT assay (Figure S7).
After a 4 h period, tetrazolium crystals were dissolved with DMSO and absorbance was measured at 560 nm.

[7] = target: IAV NA (Influenza A virus, UniProt P03468); assay type: biochemical
[8] = system: IAV; experiment: Plaque reduction assay, IAV; assay type: cell-based, influenza A virus (PR8-GFP); details: Influenza A virus, MDCK, virus pre-treated 1 h at room temperature, MDCK cells, MOI 0.01, plaque assay 48 h after infection; read-out: 50% inhibitory concentration (IC50) for IAV
Method: All experiments were performed in triplicate.

[9] = system: adenovirus; experiment: Adenovirus plaque assay; details: virus pre-treated 1 h at room temperature, 293A cells

Chain of HA2 (P03452 344-565 limits assumed): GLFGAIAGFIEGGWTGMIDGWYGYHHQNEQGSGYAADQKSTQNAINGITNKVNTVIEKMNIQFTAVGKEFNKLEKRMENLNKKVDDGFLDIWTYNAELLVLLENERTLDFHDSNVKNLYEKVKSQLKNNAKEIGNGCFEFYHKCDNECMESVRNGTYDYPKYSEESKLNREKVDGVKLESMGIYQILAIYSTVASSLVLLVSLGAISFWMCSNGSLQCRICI
Chain of HA2 (P03452 18-343 partner limits assumed): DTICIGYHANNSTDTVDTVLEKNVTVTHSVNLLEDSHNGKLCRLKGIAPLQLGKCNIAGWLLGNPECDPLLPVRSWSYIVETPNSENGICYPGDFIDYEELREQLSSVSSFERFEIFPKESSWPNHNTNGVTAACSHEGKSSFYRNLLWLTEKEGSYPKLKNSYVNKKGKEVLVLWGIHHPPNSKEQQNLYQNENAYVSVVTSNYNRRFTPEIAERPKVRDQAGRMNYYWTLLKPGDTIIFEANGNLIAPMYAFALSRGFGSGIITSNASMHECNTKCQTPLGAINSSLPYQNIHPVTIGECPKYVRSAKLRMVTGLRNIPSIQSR
Chain of IAV NA (P03468 whole entry, looked up): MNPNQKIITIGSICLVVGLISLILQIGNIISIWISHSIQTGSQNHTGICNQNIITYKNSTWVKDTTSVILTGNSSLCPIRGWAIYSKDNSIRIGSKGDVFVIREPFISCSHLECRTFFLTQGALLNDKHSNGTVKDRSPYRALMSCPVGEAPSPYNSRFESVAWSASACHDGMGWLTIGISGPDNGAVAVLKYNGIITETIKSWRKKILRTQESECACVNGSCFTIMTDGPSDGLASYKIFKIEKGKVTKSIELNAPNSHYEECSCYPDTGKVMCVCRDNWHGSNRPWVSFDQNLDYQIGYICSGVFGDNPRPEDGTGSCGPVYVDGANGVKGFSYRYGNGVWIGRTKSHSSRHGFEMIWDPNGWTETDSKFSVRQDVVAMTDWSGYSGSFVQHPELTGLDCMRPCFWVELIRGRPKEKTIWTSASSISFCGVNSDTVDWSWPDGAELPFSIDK
Chain of HA1 (P03452 18-343 limits assumed): as the sequence (P03452 18-343 partner limits assumed) above
Chain of HA1 (P03452 344-565 partner limits assumed): as the sequence (P03452 344-565 limits assumed) above

Structure (SMILES) | IAV HA protein level ([1]; treatment during adsorption, 1 mM, western blot) | IAV replication (viral RNA transcript level) ([2]; treatment during virus adsorption to host cells, 1 mM) | expression of IAV HA protein [1] | hemagglutination inhibition (HA1 function) [3] | IC50 [4] [µg/mL] | hemolysis inhibition (HA2 function) [5] | IAV transcript levels [2] | cell viability (MTT) [6] | effect on IAV NA activity [7] | IC50 [8] [µg/mL] | effect against non-enveloped adenovirus [9]
NC12CC3CC(CC(C3)C1)C2 [Amantadine, reference compound] | marked downregulation | marked decrease |  |  |  |  |  |  |  |  | 
C=CC1=C(C)c2cc3[nH]c(c4c5nc(cc6[nH]c(cc1n2)c(C)c6CC)C(C)=C5C(=O)C4C(=O)OC)C(CCC(=O)OCC)C3C (centres unmarked) [ethyl pheophorbide a] |  |  | significantly suppressed | no effect | 1.62 ± 0.86 (≈ 2.61 µM) | no effect | significantly reduced | no adverse effects on cell viability | no effects | 0.086 ± 0.072 (≈ 0.139 µM) | no effect
C=CC1=C(C)c2cc3[nH]c(c4c5nc(cc6[nH]c(cc1n2)c(C=O)c6CC)C(C)=C5C(=O)C4C(=O)OCC)C(CCC(=O)O)C3C (centres unmarked) [ethyl pheophorbide b] |  |  | significantly suppressed | no effect | 3.17 ± 0.94 (≈ 5.11 µM) | no effect | significantly reduced | no adverse effects on cell viability | no effects | 0.094 ± 0.058 (≈ 0.151 µM) | no effect
